Measurements taken from US6693216B2, “Calcium double salts” (Nutrinova Nutrition Specialties & Food Ingredients GmbH, priority 2000, dated 2004).
Where two headings read alike, the source gives them in different places.

Key:
Settings in all cases: Part II, 1 g/l in apple juice pH 4.5, 25° C.
Yeasts = test system: Yeasts
Gram-negative bacteria = test system: Gram-negative bacteria
Bacilli = test system: Bacilli
Acetic acid bacteria = test system: Acetic acid bacteria
Molds I = test system: Molds I
Thermophilic bacilli = test system: Thermophilic bacilli
Gram-positive bacteria = test system: Gram-positive bacteria
Molds II = test system: Molds II
Lactic acid bacteria = test system: Lactic acid bacteria
Clostridia = test system: Clostridia
[1] = 1 day after inoculation (2.7 × 10^4)
[2] = 3 days after inoculation (2.7 × 10^4)
[3] = 7 days after inoculation (2.7 × 10^4)
[4] = 14 days after inoculation (2.7 × 10^4)

With `O=C[O-].O=C[O-].[Ca+2]` [Calcium Formate] the “Number of surviving microorganisms per g of contaminated sample, Yeasts” value (from here on “Number … per g of contaminated sample, Yeasts”) (Yeasts; 1 day after inoculation (2.6 × 10^4)) was 7.4 × 10^5 CFU/g, the “Number … per g of contaminated sample, Yeasts” value (Yeasts; 3 days after inoculation (2.6 × 10^4)) was 1.0 × 10^6 CFU/g and the “Number … per g of contaminated sample, Yeasts” value (Yeasts; 7 days after inoculation (2.6 × 10^4)) was >3.0 × 10^6 CFU/g. The “Number … per g of contaminated sample, Yeasts” value (Yeasts; 14 days after inoculation (2.6 × 10^4)) was >3.0 × 10^6 CFU/g, the “Number of surviving microorganisms per g of contaminated sample, Gram-negative bacteria” value (Gram-negative bacteria; [1]) was 1.5 × 10^4 CFU/g and the “Number of surviving microorganisms per g of contaminated sample, Gram-negative bacteria” value (Gram-negative bacteria; [2]) was 3.6 × 10^3 CFU/g. For the same molecule, the “Number of surviving microorganisms per g of contaminated sample, Gram-negative bacteria” value (Gram-negative bacteria; [3]) was 2.3 × 10^3 CFU/g, the “Number of surviving microorganisms per g of contaminated sample, Gram-negative bacteria” value (Gram-negative bacteria; [4]) was 75 CFU/g and the “Number of surviving microorganisms per g of contaminated sample, Bacilli” value (shortened to “Number … per g of contaminated sample, Bacilli”) (Bacilli; 1 day after inoculation (3.3 × 10^4)) was 1.7 × 10^3 CFU/g. For the same molecule, the “Number … per g of contaminated sample, Bacilli” value (Bacilli; 3 days after inoculation (3.3 × 10^4)) was 1.5 × 10^3 CFU/g, the “Number … per g of contaminated sample, Bacilli” value (Bacilli; 7 days after inoculation (3.3 × 10^4)) was 1.4 × 10^3 CFU/g and the “Number … per g of contaminated sample, Bacilli” value (Bacilli; 14 days after inoculation (3.3 × 10^4)) was 1.7 × 10^3 CFU/g. The “Number of surviving microorganisms per g of contaminated sample, Acetic acid bacteria” value (Acetic acid bacteria; 1 day after inoculation (2.8 × 10^4)) was 8.7 × 10^5 CFU/g, the “Number of surviving microorganisms per g of contaminated sample, Acetic acid bacteria” value (Acetic acid bacteria; 3 days after inoculation (2.8 × 10^4)) was 2.5 × 10^6 CFU/g and the “Number of surviving microorganisms per g of contaminated sample, Acetic acid bacteria” value (Acetic acid bacteria; 7 days after inoculation (2.8 × 10^4)) was >3.0 × 10^6 CFU/g. The “Number of surviving microorganisms per g of contaminated sample, Acetic acid bacteria” value (Acetic acid bacteria; 14 days after inoculation (2.8 × 10^4)) was >3.0 × 10^6 CFU/g, the “Number of surviving microorganisms per g of contaminated sample, Molds I” value (Molds I; 1 day after inoculation (2.2 × 10^4)) was 4.1 × 10^3 CFU/g and the “Number of surviving microorganisms per g of contaminated sample, Molds I” value (Molds I; 3 days after inoculation (2.2 × 10^4)) was 2.9 × 10^3 CFU/g. For the same molecule, the “Number of surviving microorganisms per g of contaminated sample, Molds I” value (Molds I; 7 days after inoculation (2.2 × 10^4)) was 1.9 × 10^3 CFU/g, the “Number of surviving microorganisms per g of contaminated sample, Molds I” value (Molds I; 14 days after inoculation (2.2 × 10^4)) was 2.6 × 10^3 CFU/g and the “Number of surviving microorganisms per g of contaminated sample, Thermophilic bacilli” value (Thermophilic bacilli; 1 day after inoculation (1.3 × 10^4)) was 2.3 × 10^3 CFU/g. The “Number of surviving microorganisms per g of contaminated sample, Thermophilic bacilli” value (Thermophilic bacilli; 3 days after inoculation (1.3 × 10^4)) was 8.0 × 10^2 CFU/g, the “Number of surviving microorganisms per g of contaminated sample, Thermophilic bacilli” value (Thermophilic bacilli; 7 days after inoculation (1.3 × 10^4)) was 6.0 × 10^2 CFU/g and the “Number of surviving microorganisms per g of contaminated sample, Thermophilic bacilli” value (Thermophilic bacilli; 14 days after inoculation (1.3 × 10^4)) was <10 CFU/g. For the same molecule, the “Number of surviving microorganisms per g of contaminated sample, Gram-positive bacteria” value (Gram-positive bacteria; 1 day after inoculation (2.1 × 10^4)) was 2.2 × 10^4 CFU/g, the “Number of surviving microorganisms per g of contaminated sample, Gram-positive bacteria” value (Gram-positive bacteria; 3 days after inoculation (2.1 × 10^4)) was 8.9 × 10^3 CFU/g and the “Number of surviving microorganisms per g of contaminated sample, Gram-positive bacteria” value (Gram-positive bacteria; 7 days after inoculation (2.1 × 10^4)) was 4.6 × 10^3 CFU/g. For the same molecule, the “Number of surviving microorganisms per g of contaminated sample, Gram-positive bacteria” value (Gram-positive bacteria; 14 days after inoculation (2.1 × 10^4)) was 2.0 × 10^3 CFU/g, the “Number of surviving microorganisms per g of contaminated sample, Molds II” value (“Number … per g of contaminated sample, Molds II” for short) (Molds II; 1 day after inoculation (2.5 × 10^4)) was 1.0 × 10^4 CFU/g and the “Number … per g of contaminated sample, Molds II” value (Molds II; 3 days after inoculation (2.5 × 10^4)) was 1.5 × 10^3 CFU/g. The “Number … per g of contaminated sample, Molds II” value (Molds II; 7 days after inoculation (2.5 × 10^4)) was >3.0 × 10^4 CFU/g, the “Number … per g of contaminated sample, Molds II” value (Molds II; 14 days after inoculation (2.5 × 10^4)) was 3.9 × 10^5 CFU/g and the “Number of surviving microorganisms per g of contaminated sample, Lactic acid bacteria” value (Lactic acid bacteria; [1]) was 4.4 × 10^3 CFU/g. For the same molecule, the “Number of surviving microorganisms per g of contaminated sample, Lactic acid bacteria” value (Lactic acid bacteria; [2]) was 2.5 × 10^4 CFU/g, the “Number of surviving microorganisms per g of contaminated sample, Lactic acid bacteria” value (Lactic acid bacteria; [3]) was >3.0 × 10^6 CFU/g and the “Number of surviving microorganisms per g of contaminated sample, Lactic acid bacteria” value (Lactic acid bacteria; [4]) was >3.0 × 10^6 CFU/g. For the same molecule, the “Number of surviving microorganisms per g of contaminated sample, Clostridia” value (Clostridia; 1 day after inoculation (2.9 × 10^4)) was 4.0 × 10^2 CFU/g, the “Number of surviving microorganisms per g of contaminated sample, Clostridia” value (Clostridia; 3 days after inoculation (2.9 × 10^4)) was 2.0 × 10^2 CFU/g and the “Number of surviving microorganisms per g of contaminated sample, Clostridia” value (Clostridia; 7 days after inoculation (2.9 × 10^4)) was <100 CFU/g. For the same molecule, the “Number of surviving microorganisms per g of contaminated sample, Clostridia” value (Clostridia; 14 days after inoculation (2.9 × 10^4)) was 10 CFU/g.
